Results as given in EP3414211B1, “PLASTER COMPOSITION” (priority 2016, dated 2017).

What was measured:
[1] = Foamability (foam volume) after one minute of foam generation with an Ultra Turrax system at 8200 rpm; format: physicochemical
Description: The "foamability", i.e. the volume of foam produced, and the foam stability were tested for a number of combinations of foaming agent and co-surfactant. Specifically, a number of foaming solutions were prepared containing various amounts of foaming agent and co-surfactant. The following foaming agents were tested: FA1 mixture of linear sodium octyl sulfate, sodium decyl sulfate, and sodium dodecyl sulfate as described in EP1328485. FA2 sodium n-decyl sulfate (Empicol® 0758, available from Huntsman) FA3 alkyl ether sulfate (Millifoam® H, available from Huntsman) FA4 STEOL ® DES32-IS (alkyl ether sulfate based surfactant, available from Stepan)
Each of the foaming agents was mixed with 5 wt%, 10 wt%, and 20 wt% (relative to the weight of foaming agent) of the following co-surfactants: CS1 lauramine oxide (dodecyldimethylamine oxide), available under the trade name Empigen® OB (Huntsman Performance Products) CS2 C8-10alkyl polyglucoside available under the trade name Glucopon 215® (comparative example)
(§1) For each mixture, foamability (foam volume) and foam stability were measured after one minute of foam generation with an Ultra Turrax system at 8200 rpm.

[2] = Foam stability (foam half-life: time to recover one half of the original liquid volume from the foam); format: physicochemical
Description: as §1
Also the foam stability was tested, by measuring the foam half-life, i.e. the amount of time it takes to recover one half of the original volume of liquid from a measured volume of foam.

[3] = co-surfactant mixed at 5, 10, 20 wt% with foaming agents

Row | Compound | effect of co-surfactant on foamability (foam volume) of the foaming agents [1, 3] | effect of co-surfactant on foam stability [2, 3] | Foam volume increase (%) ([1]; 0 % CS1 (baseline)) | Foam volume ([1]; 0 % CS1 (wt% relative to total foaming agent and co-surfactant)) [mL] | Foam volume ([1]; 5 % CS1) [mL] | Foam volume increase (%) ([1]; 5 % CS1, versus 0 % CS1) | Foam volume ([1]; 10 % CS1) [mL] | Foam volume increase (%) ([1]; 10 % CS1, versus 0 % CS1) | Foam volume ([1]; 20 % CS1) [mL] | Foam volume increase (%) ([1]; 20 % CS1, versus 0 % CS1) | Half-life ([2]; 0 % CS1) [min] | Half-life increase (%) ([2]; 0 % CS1 (baseline)) | Half-life ([2]; 5 % CS1) [min] | Half-life increase (%) ([2]; 5 % CS1, versus 0 % CS1) | Half-life ([2]; 10 % CS1) [min] | Half-life increase (%) ([2]; 10 % CS1, versus 0 % CS1) | Half-life ([2]; 20 % CS1) [min] | Half-life increase (%) ([2]; 20 % CS1, versus 0 % CS1)
1 | CCCCCCCCCCCC[N+](C)(C)[O-] [CS1, dodecyldimethylamine oxide] | significantly increase | highest foam stability improvement |  |  |  |  |  |  |  |  |  |  |  |  |  |  |  | 
2 | CCCCCCCCCCOS(=O)(=O)[O-].[Na+] [FA2, sodium n-decyl sulfate] |  |  | 0 | 530 | 562 | 6 | 599 | 13 | 588 | 11 | 5.78 | 0 | 6.18 | 7 | 6.87 | 11 | 8.4 | 36
